We go through nine compounds from patent EP3212201B1, “NUCLEOSIDE KINASE INHIBITORS” (BCI Pharma, priority 2014, dated 2016).

Structures are written as SMILES.

In general, inhibition refers to the change of the read-out against control, counted positive when it falls.

Common to all, as to assay: FRET-based coupled-enzyme protein kinase inhibition assay
Assay type in all cases: biochemical
What all share (conditions): compound at 10 µM, 1% DMSO

The target of one experiment is T1, ACVR1B (ALK4) (Homo sapiens, UniProt P36896).
T1 sequence (P36896 24-505): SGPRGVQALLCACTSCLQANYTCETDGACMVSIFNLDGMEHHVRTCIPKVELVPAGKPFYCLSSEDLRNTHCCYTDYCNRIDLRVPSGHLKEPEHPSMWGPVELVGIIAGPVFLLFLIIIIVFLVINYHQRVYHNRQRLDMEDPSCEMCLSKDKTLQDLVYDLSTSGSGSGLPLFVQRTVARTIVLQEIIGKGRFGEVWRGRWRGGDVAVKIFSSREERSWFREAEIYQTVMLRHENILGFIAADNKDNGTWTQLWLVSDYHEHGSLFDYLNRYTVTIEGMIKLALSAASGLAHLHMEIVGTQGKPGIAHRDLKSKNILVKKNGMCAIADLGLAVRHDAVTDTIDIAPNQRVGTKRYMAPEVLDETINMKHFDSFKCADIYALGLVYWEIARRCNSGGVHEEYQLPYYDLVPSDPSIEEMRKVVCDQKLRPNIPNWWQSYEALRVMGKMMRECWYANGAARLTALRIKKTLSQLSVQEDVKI
The method, then:
(§1) A biochemical assay was then performed in order to measure the protein kinase inhibition. It employed a fluorescence-based coupled-enzyme format and was based on the differential sensitivity of phosphorylated and non-phosphorylated peptides to proteolytic cleavage.
(§2) Peptide substrates were labeled with two fluorophores. The two fluorohores used were coumarin (donor) and fluorecein (acceptor), and each of the peptides was bearing one at one end, and one at the other end, which made up fluorescence resonance energy transfer (FRET) pair peptides.
(§3) In a primary reaction, the FRET-peptides were submitted to a phosphorylation reaction, in which one of adenosine triphosphate (ATP)'s phosphate groups was transferred to the peptide in the presence of kinase. When kinase inhibition takes place, the peptide will not be phosphorylated. In a secondary reaction, both the phosphorylated FRET-peptides and the non-phosphorylated FRET-peptides were reacted with a development reagent. It has been observed that non-phosphorylated FRET-peptides were cleaved, whereas the phosphorylted FRET-peptide remained intact.
(§4) Cleavage disrupts FRET between the donor (i.e., coumarin) and acceptor (i.e., fluorescein) fluorophores on the FRET-peptide, whereas uncleaved, phosphorylated FRET-peptides maintain FRET. A ratiometric method, which calculates the Emission Ratio of donor emission to acceptor emission after excitation of the donor fluorophore at 400 nm, is used to quantitate reaction progress, as shown in the equation below. [formula]
(§5) A significant benefit of this ratiometric method for quantitating reaction progress is the elimination of well-to-well variations in FRET-peptide concentration and signal intensities. As a result, the assay yields very high Z'factor values (>0.7) at a low percent phosphorylation. Both cleaved and uncleaved FRET-peptides contribute to the fluorescence signals and therefore to the Emission Ratio. The extent of phosphorylation of the FRET-peptide can be calculated from the Emission Ratio. The Emission Ratio will remain low if the FRET-peptide is phosphorylated (i.e., no kinase inhibition) and will be high if the FRET-peptide is non-phosphorylated (i.e., kinase inhibition).
(§6) The Test Compounds were screened in 1% DMSO. For 10 point titrations, 3-fold serial dilutions were prepared from the starting concentration.
(§7) All Peptide/Kinase Mixtures were diluted to a 2X working concentration in the appropriate Kinase Buffer (50 mM HEPES pH 7.5, 0.01% BRIJ-35, 10 mM MgCl2, 1 mM […]).
(§8) All ATP Solutions were diluted to a 4X working concentration in Kinase Buffer. ATP Km apparent was previously determined using another assay.
(§9) 2.5 µL - 4X Test Compound or 100 nL 100X plus 2.4 µL kinase buffer were mixed together with 2. 5 µL - 2X Peptide/Kinase Mixture and 3. 2.5 µL - 4X ATP Solution.
(§10) The solution was plate-shaked for 30 seconds, then incubated 60 minutes at room temperature for kinase reaction. 5 µL of Development Reagent Solution were then added, followed by a 30-second plate shake and a 60-minute Development Reaction incubation at room temperature. The results were read on a fluorescence plate reader and the data was analyzed.
(§11) The compounds that show the highest Emission Ratio are the ones that also show the highest protein kinase inhibition properties.

For another experiment, the target named is MET (cMet) (Homo sapiens, UniProt P08581). The protocol:
as §1, §2, §3, §4, §5, §6, §7, §8, §9, §10, §11

In the next experiment the target is LCK (Homo sapiens, UniProt P06239). The protocol: as §1, §2, §3, §4, §5, §6, §7, §8, §9, §10, §11
For another experiment, the target named is PDGFRB (PDGFR beta) (Homo sapiens, UniProt P09619). The protocol:
as §1, §2, §3, §4, §5, §6, §7, §8, §9, §10, §11

The target of another experiment is PIM1 (Homo sapiens, UniProt P11309). The protocol: as §1, §2, §3, §4, §5, §6, §7, §8, §9, §10, §11
Another experiment has as its target PAK4 (Homo sapiens, UniProt O96013). The protocol:
as §1, §2, §3, §4, §5, §6, §7, §8, §9, §10, §11

For the next experiment, the target named is PRKACA (PKA) (Homo sapiens, UniProt P17612). The protocol: as §1, §2, §3, §4, §5, §6, §7, §8, §9, §10, §11
Another experiment addresses GSK3B (GSK3 beta) (Homo sapiens, UniProt P49841). The protocol:
as §1, §2, §3, §4, §5, §6, §7, §8, §9, §10, §11

Another experiment addresses T2, IKBKB (IKK beta) (Homo sapiens, UniProt O14920).
T2 sequence (O14920 1-756): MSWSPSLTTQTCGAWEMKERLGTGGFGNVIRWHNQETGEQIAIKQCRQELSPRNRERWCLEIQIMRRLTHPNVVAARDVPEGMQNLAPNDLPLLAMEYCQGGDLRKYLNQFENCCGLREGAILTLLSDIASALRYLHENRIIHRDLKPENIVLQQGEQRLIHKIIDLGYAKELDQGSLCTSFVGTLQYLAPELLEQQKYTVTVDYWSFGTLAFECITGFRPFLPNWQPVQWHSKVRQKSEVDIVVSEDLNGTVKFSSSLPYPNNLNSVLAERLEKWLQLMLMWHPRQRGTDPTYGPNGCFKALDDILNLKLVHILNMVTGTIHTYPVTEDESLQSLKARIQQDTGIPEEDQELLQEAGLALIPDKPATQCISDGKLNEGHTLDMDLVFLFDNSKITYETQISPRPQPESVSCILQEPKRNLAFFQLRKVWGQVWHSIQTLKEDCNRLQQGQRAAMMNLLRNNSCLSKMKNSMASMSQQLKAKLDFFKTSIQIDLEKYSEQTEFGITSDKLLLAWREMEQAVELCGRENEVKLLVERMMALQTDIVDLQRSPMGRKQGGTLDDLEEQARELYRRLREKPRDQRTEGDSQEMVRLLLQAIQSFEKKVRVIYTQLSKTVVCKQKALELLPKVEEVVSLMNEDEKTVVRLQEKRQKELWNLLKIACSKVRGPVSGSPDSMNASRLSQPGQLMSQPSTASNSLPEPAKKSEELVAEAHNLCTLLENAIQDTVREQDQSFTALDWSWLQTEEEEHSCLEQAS
The method, then:
as §1, §2, §3, §4, §5, §6, §7, §8, §9, §10, §11

Another experiment concerns the target TEK (Tie2) (Homo sapiens, UniProt Q02763). The protocol: as §1, §2, §3, §4, §5, §6, §7, §8, §9, §10, §11

Sequence of LCK (P06239 whole entry, species assumed): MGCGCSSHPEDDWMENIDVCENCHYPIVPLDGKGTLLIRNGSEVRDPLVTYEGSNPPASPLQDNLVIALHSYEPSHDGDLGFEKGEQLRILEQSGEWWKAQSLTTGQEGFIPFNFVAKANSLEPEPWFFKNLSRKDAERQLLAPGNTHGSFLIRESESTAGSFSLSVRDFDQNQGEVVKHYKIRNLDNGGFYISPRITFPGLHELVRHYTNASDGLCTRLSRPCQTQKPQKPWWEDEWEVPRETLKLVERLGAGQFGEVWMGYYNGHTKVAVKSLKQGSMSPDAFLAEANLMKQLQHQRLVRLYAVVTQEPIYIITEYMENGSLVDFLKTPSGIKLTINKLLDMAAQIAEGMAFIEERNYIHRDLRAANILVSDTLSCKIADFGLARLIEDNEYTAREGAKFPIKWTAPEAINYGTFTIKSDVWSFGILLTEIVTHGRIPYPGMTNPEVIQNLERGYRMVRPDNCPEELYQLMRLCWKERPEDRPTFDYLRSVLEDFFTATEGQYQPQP
Sequence of MET (cMet) (P08581 25-1390): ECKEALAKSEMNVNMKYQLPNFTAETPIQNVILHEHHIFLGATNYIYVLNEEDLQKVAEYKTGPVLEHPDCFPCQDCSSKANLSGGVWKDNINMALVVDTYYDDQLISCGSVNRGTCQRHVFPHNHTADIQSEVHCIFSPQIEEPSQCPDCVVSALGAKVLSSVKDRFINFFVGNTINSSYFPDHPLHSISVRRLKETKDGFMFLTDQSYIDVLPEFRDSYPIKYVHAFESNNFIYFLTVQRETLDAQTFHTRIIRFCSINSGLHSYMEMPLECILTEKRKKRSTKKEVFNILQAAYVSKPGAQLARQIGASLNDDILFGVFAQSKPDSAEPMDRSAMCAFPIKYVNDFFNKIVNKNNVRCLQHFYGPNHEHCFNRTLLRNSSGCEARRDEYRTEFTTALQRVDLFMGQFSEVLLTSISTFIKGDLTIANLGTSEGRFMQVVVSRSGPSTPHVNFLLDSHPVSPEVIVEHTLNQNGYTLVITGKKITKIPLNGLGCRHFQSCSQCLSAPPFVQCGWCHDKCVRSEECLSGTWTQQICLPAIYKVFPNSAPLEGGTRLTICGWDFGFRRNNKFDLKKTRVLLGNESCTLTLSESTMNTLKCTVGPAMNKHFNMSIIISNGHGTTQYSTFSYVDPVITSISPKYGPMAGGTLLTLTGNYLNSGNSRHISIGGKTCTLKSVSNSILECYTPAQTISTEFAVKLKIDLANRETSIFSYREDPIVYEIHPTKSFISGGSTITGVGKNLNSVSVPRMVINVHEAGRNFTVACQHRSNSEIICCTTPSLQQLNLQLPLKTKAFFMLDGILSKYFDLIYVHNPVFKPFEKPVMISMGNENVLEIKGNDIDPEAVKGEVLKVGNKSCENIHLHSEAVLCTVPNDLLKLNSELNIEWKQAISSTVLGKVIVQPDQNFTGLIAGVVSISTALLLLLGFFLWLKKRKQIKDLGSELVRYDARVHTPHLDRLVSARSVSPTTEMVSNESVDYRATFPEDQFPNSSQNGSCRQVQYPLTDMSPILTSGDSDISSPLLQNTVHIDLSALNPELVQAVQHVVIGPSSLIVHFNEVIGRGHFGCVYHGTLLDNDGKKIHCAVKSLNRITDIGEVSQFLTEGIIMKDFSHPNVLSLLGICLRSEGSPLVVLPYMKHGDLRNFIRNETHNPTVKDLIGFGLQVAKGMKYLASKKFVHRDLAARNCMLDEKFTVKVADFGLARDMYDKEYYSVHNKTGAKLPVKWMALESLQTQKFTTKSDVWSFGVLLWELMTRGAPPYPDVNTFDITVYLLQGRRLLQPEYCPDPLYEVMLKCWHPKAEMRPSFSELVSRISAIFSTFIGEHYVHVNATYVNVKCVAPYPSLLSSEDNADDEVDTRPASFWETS
Sequence of PIM1 (P11309 whole entry, species assumed): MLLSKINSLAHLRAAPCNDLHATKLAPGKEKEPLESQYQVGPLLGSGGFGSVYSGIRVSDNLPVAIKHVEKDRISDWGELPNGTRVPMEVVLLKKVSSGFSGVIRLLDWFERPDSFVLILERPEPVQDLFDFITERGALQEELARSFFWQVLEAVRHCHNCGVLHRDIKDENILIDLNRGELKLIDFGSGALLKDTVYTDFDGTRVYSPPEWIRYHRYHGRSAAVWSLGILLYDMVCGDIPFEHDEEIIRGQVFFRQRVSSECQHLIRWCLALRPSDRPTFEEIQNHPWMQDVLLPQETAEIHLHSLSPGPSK
Sequence of TEK (Tie2) (Q02763 23-1124, species assumed): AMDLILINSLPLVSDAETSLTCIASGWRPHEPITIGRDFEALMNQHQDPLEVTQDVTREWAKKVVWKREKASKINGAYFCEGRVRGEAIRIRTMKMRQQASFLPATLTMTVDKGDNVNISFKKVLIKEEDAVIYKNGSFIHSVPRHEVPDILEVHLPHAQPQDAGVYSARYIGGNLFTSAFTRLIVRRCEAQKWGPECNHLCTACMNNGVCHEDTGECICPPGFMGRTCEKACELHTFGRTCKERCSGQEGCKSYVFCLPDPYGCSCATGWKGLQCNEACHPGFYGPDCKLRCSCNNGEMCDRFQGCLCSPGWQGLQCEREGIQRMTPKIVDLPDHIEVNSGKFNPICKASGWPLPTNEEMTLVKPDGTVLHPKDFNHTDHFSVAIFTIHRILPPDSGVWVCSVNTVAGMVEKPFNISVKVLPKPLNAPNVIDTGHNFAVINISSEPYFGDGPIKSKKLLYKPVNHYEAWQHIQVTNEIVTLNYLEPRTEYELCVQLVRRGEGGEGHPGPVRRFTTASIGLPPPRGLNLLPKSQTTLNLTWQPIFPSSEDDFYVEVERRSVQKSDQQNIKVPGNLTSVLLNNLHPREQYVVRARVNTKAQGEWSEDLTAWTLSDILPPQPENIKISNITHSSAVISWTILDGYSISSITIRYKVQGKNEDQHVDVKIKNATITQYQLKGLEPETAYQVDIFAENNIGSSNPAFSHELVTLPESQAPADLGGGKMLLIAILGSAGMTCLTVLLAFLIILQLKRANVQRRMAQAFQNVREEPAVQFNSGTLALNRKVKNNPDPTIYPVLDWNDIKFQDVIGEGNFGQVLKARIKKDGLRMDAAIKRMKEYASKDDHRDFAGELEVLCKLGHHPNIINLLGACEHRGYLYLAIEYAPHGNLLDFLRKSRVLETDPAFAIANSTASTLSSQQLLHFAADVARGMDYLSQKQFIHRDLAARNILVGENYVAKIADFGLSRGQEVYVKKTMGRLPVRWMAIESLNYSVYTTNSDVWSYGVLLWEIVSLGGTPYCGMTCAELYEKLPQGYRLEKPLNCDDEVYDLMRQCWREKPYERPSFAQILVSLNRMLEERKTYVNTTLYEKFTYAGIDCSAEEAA
Sequence of PDGFRB (PDGFR beta) (P09619 33-1106, species assumed): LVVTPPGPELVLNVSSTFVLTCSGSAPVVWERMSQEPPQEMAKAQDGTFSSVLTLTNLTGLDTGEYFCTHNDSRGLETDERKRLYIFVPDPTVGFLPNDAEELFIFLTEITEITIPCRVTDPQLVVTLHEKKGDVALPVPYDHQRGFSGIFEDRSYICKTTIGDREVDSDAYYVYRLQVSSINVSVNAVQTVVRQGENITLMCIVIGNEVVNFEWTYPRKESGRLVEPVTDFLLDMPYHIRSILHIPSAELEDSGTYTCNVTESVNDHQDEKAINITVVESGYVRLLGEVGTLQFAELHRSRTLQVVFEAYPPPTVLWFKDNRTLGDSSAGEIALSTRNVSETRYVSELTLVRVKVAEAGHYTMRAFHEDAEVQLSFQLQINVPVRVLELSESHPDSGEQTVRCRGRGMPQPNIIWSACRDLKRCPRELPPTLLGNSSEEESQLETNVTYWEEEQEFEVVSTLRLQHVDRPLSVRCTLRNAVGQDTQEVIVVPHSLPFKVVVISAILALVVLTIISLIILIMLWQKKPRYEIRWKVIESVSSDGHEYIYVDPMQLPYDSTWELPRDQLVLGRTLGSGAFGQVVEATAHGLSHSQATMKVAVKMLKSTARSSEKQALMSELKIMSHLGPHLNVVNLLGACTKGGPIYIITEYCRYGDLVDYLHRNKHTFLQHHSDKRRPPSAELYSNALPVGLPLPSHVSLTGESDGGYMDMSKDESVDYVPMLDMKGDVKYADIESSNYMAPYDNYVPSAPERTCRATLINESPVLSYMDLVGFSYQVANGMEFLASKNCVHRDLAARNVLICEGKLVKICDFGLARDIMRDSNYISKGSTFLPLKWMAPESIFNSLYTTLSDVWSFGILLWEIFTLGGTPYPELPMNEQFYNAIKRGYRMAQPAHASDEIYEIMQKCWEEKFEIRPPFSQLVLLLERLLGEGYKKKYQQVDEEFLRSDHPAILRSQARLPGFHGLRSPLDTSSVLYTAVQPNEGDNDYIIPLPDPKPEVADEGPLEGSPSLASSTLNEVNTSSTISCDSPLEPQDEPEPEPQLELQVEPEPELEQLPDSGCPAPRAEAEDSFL
Sequence of PAK4 (O96013 whole entry, species assumed): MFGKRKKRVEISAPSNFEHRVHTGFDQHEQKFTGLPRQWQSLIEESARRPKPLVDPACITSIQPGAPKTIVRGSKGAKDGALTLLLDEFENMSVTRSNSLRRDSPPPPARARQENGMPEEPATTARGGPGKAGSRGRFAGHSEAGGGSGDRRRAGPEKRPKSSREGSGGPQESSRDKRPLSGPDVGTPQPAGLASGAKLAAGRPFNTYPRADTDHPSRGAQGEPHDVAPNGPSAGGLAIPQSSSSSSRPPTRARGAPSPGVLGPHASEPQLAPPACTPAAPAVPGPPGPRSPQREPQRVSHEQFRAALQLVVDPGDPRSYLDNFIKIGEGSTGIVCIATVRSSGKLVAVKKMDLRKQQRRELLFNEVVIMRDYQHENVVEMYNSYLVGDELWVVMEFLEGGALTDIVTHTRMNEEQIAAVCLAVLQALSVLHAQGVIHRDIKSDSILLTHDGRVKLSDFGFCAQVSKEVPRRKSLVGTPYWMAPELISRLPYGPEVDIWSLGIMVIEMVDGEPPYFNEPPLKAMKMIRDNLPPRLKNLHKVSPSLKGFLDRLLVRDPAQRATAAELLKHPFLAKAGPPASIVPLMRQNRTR

Turning to `Nc1ncnc2c1ncn2[C@@H]1O[C@H](COC(=O)N2CCN(C(=O)N3CCOCC3)CC2)[C@@H](O)[C@H]1O` [Compound C89], the inhibition at 10 µM at ACVR1B (ALK4) is 0%; against MET (cMet), -4%; on LCK, 9%; against PDGFRB (PDGFR beta) it was 9%; against PIM1, -4%; at PAK4, -4%. Also, the inhibition at 10 µM against PRKACA (PKA) was -1%; on GSK3B (GSK3 beta) it was -2%; at IKBKB (IKK beta), -10%; against TEK (Tie2), -2%.

For the compound `Nc1ncnc2c1ncn2[C@@H]1O[C@H](COC(=O)N2CCC(Cc3ccc(F)cc3)C2)[C@@H](O)[C@H]1O` (stereo partly drawn) [Compound C66], the inhibition at 10 µM against ACVR1B (ALK4) is 1%; at MET (cMet) it was -14%; against LCK, 57%; against PDGFRB (PDGFR beta), 4%; on PIM1 it was 7%; against PAK4, 10%. Moreover, the inhibition at 10 µM against PRKACA (PKA) was 1%; against GSK3B (GSK3 beta) it was 1%; against IKBKB (IKK beta) it was -11%; on TEK (Tie2) it was 4%.

On to `Nc1ncnc2c1ncn2[C@@H]1O[C@H](COC(=O)N2CCN(CCc3ccccc3)CC2)[C@@H](O)[C@H]1O` [Compound C26], for which the inhibition at 10 µM was 0% against ACVR1B (ALK4); -5% against MET (cMet); 57% at LCK; 1% at PDGFRB (PDGFR beta); -5% on PIM1; 6% at PAK4. Besides, the inhibition at 10 µM against PRKACA (PKA) is -1%; on GSK3B (GSK3 beta), 6%; against IKBKB (IKK beta), -8%; at TEK (Tie2) it was -4%.

Turning to `CN1CCN(CCNC(=O)OC[C@H]2O[C@@H](n3cnc4c(N)ncnc43)[C@H](O)[C@@H]2O)CC1` [Compound C46], the inhibition at 10 µM at ACVR1B (ALK4) was determined as 6%; against MET (cMet), 8%; against LCK, 13%; on PDGFRB (PDGFR beta), 1%; against PIM1 it was 8%; against PAK4, 4%. Besides, the inhibition at 10 µM on PRKACA (PKA) is 3%; at GSK3B (GSK3 beta) it was 5%; against IKBKB (IKK beta), -3%; against TEK (Tie2) it was 0%.

Take `CC(C)N1CCC(NC(=O)OC[C@H]2O[C@@H](n3cnc4c(N)ncnc43)[C@H](O)[C@@H]2O)CC1` [Compound C19]: the inhibition at 10 µM on ACVR1B (ALK4) was 6%; on MET (cMet) it was 2%; against LCK, 32%; at PDGFRB (PDGFR beta), 6%; at PIM1, -7%; against PAK4, 3%. The inhibition at 10 µM at PRKACA (PKA) is 4%; against GSK3B (GSK3 beta) it was 6%; at IKBKB (IKK beta) it was -6%; against TEK (Tie2) it was 6%.

For `Nc1ncnc2c1ncn2[C@@H]1O[C@H](COC(=O)NCCCc2nc3ccccc3[nH]2)[C@@H](O)[C@H]1O` [Compound C1], the inhibition at 10 µM against ACVR1B (ALK4) was 2%; on MET (cMet), 0%; at LCK it was 72%; against PDGFRB (PDGFR beta) it was 1%; at PIM1, -2%; on PAK4, 15%. The inhibition at 10 µM was 21% against PRKACA (PKA), 7% against GSK3B (GSK3 beta), -10% against IKBKB (IKK beta) and 3% on TEK (Tie2).

Consider `CN(C)CCNC(=O)OC[C@H]1O[C@@H](n2cnc3c(N)ncnc32)[C@H](O)[C@@H]1O` [Compound C85], for which the inhibition at 10 µM at ACVR1B (ALK4) was 0%; at MET (cMet) it was -12%; at LCK, 25%; at PDGFRB (PDGFR beta), 8%; against PIM1, 0%; against PAK4, 1%. Also, the inhibition at 10 µM is -2% against PRKACA (PKA), -5% on GSK3B (GSK3 beta), -10% against IKBKB (IKK beta) and 0% on TEK (Tie2).

Turning to `CS(=O)(=O)N1CC2(CCN(C(=O)OC[C@H]3O[C@@H](n4cnc5c(N)ncnc54)[C@H](O)[C@@H]3O)CC2)c2ccccc21` [Compound C98], the inhibition at 10 µM is -1% against ACVR1B (ALK4); -12% against MET (cMet); 84% on LCK; 10% on PDGFRB (PDGFR beta); 6% on PIM1; 7% on PAK4. Further, the inhibition at 10 µM against PRKACA (PKA) is -2%; against GSK3B (GSK3 beta), -1%; on IKBKB (IKK beta) it was -8%; against TEK (Tie2), 58%.

In the case of `Nc1ncnc2c1ncn2[C@@H]1O[C@H](COC(=O)NC[C@H](O)CO)[C@@H](O)[C@H]1O` [Compound C8], the inhibition at 10 µM was 0% against ACVR1B (ALK4); -16% against MET (cMet); 26% against LCK; 5% against PDGFRB (PDGFR beta); 11% against PIM1; 19% on PAK4. Moreover, the inhibition at 10 µM at PRKACA (PKA) is 43%; at GSK3B (GSK3 beta), 21%; against IKBKB (IKK beta) it was -6%; against TEK (Tie2), -3%.
